Data as given in patent publication US10434135B2, “Pharmaceutical composition for preventing or treating arthritis” (Samsung Life Public Welfare Foundation, priority 2015, dated 2019).
Ends that are not written are not given here.

Details: rat, in vivo
From the text: The stained samples were examined under a fluorescence microscope (Eclipse TE2000U) at 200× magnification and photographed from 4 randomly selected areas. Then, the images with specific expressions were processed using the imageJ program and then quantified.

## KLDLKLDLKLDLRPKPQQFFGLM [KLD12-SP]
  substance P retained in the knee joints: retained in the knee joints of rats
